Measurements from PubChem BioAssay AID330 (DTP/NCI, 2004).
“And” between values parts separate entries of the source, which are not always exact repeats. Equal values may be shown once. Toxic doses and inconclusive results are not listed. Rule for the calls: active = survival T/C of 150% or more; inactive = T/C below 125% in these data.

Tested on: P388 leukemia ip, CD2F1 mice, survival T/C
Test: NCI In Vivo Anticancer Drug Screen. Data for tumor model P388 Leukemia (intraperitoneal) in CD2F1 (CDF1) mice
Settings: endpoint: median survival time, higher = longer survival
How it was run: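 Mice carrying the transplanted tumor received test compound or vehicle. Survival was recorded in each group, and the value is the treated-group measurement divided by that of the vehicle-treated control group.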

[1] = dose: 12.5 mg/kg/injection, schedule: Q01DX009 (ip), vehicle: saline with Tween-80
[2] = dose: 25.0 mg/kg/injection, schedule: Q01DX009 (ip), vehicle: saline with Tween-80
[3] = dose: 50.0 mg/kg/injection, schedule: Q01DX009 (ip), vehicle: saline with Tween-80
[4] = dose: 100.0 mg/kg/injection, schedule: Q01DX009 (ip), vehicle: saline with Tween-80
[5] = dose: 60.0 mg/kg/injection, schedule: Q01DX005 (ip), vehicle: Klucel (hydroxypropylcellulose) (HPC)
[6] = dose: 120.0 mg/kg/injection, schedule: Q01DX005 (ip), vehicle: Klucel (hydroxypropylcellulose) (HPC)
[7] = dose: 240.0 mg/kg/injection, schedule: Q01DX005 (ip), vehicle: Klucel (hydroxypropylcellulose) (HPC)
[8] = dose: 60.0 mg/kg/injection, schedule: Q01DX005 (ip), vehicle: saline with Tween-80
[9] = dose: 120.0 mg/kg/injection, schedule: Q01DX005 (ip), vehicle: saline with Tween-80
[10] = dose: 240.0 mg/kg/injection, schedule: Q01DX005 (ip), vehicle: saline with Tween-80
[11] = dose: 6.25 mg/kg/injection, schedule: Q01DX005 (ip), vehicle: saline with Tween-80
[12] = dose: 12.5 mg/kg/injection, schedule: Q01DX005 (ip), vehicle: saline with Tween-80
[13] = dose: 25.0 mg/kg/injection, schedule: Q01DX005 (ip), vehicle: saline with Tween-80
[14] = dose: 50.0 mg/kg/injection, schedule: Q01DX005 (ip), vehicle: saline with Tween-80
[15] = dose: 50.0 mg/kg/injection, schedule: Q01DX005 (ip), vehicle: Klucel (hydroxypropylcellulose) (HPC)
[16] = dose: 100.0 mg/kg/injection, schedule: Q01DX005 (ip), vehicle: Klucel (hydroxypropylcellulose) (HPC)
[17] = dose: 200.0 mg/kg/injection, schedule: Q01DX005 (ip), vehicle: Klucel (hydroxypropylcellulose) (HPC)
[18] = dose: 200.0 mg/kg/injection, schedule: Q01DX009 (ip), vehicle: saline with Tween-80
[19] = dose: 25.0 mg/kg/injection, schedule: Q01DX005 (ip), vehicle: Klucel (hydroxypropylcellulose) (HPC)

Measured: T/C

Cc1cccc(=O)n1CCC#N
inactive: dose: 100.0 mg/kg/injection, schedule: Q01DX009 (ip), vehicle: saline 95 % of control | dose: 200.0 mg/kg/injection, schedule: Q01DX009 (ip), vehicle: saline 100 % of control | dose: 400.0 mg/kg/injection, schedule: Q01DX009 (ip), vehicle: saline 100 % of control

Nc1ccccc1C(=O)N/N=C\c1ccc(O)cc1
inactive: [1] 94 % of control | [2] 89 % of control and 91 % of control | [3] 101 % of control and 94 % of control | [4] 99 % of control and 87 % of control

C[CH2][Sn]([CH2]C)([N](c1ccccn1)c1ccccn1)[N](c1ccccn1)c1ccccn1
inactive: dose: 1.56 mg/kg/injection, schedule: Q01DX005 (ip), vehicle: Klucel (hydroxypropylcellulose) (HPC) 123 % of control | dose: 3.12 mg/kg/injection, schedule: Q01DX005 (ip), vehicle: Klucel (hydroxypropylcellulose) (HPC) 119 % of control | dose: 6.25 mg/kg/injection, schedule: Q01DX005 (ip), vehicle: Klucel (hydroxypropylcellulose) (HPC) 116 % of control and 123 % of control

COc1ccccc1C1OC2=C(Nc3ccccc3N2)C1=O (stereo not given)
inactive: dose: 30.0 mg/kg/injection, schedule: Q01DX005 (ip), vehicle: Klucel (hydroxypropylcellulose) (HPC) 101 % of control | [5] 97 % of control and 98 % of control | [6] 91 % of control | [7] 92 % of control

NC(CSP(=O)(O)O)=NCC12CC3CC(CC(C3)C1)C2
inactive: dose: 3.12 mg/kg/injection, schedule: Q01DX009 (ip), vehicle: saline with Tween-80 100 % of control | dose: 6.25 mg/kg/injection, schedule: Q01DX009 (ip), vehicle: saline with Tween-80 104 % of control | [1] 110 % of control

CC(=O)c1ccc(N/N=[N+](/C)[O-])cc1
inactive: [8] 99 % of control | [9] 101 % of control | [10] 99 % of control

Cc1c(O)ccc(N=O)c1O
inactive: [11] 98 % of control | [12] 94 % of control | [13] 90 % of control | [14] 93 % of control

Cc1oc2ccccc2c(=O)c1C(=O)O
inactive: [15] 99 % of control | [16] 100 % of control | [17] 101 % of control

O=c1[nH]c(-c2cccc(-c3nnc(-c4ccccc4Cl)c(=O)[nH]3)c2)nnc1-c1ccccc1Cl
inactive: dose: 100.0 mg/kg/injection, schedule: Q04DX002 (ip), vehicle: Klucel (hydroxypropylcellulose) (HPC) 100 % of control | dose: 200.0 mg/kg/injection, schedule: Q04DX002 (ip), vehicle: Klucel (hydroxypropylcellulose) (HPC) 100 % of control | dose: 400.0 mg/kg/injection, schedule: Q04DX002 (ip), vehicle: Klucel (hydroxypropylcellulose) (HPC) 96 % of control

Clc1ccc(-n2ccc(=N/N=C/c3ccc(Cl)c(Cl)c3)cc2)cc1
inactive: dose: 25.0 mg/kg/injection, schedule: Q01DX001 (ip), vehicle: Klucel (hydroxypropylcellulose) (HPC) 100 % of control | dose: 50.0 mg/kg/injection, schedule: Q01DX001 (ip), vehicle: Klucel (hydroxypropylcellulose) (HPC) 100 % of control | dose: 100.0 mg/kg/injection, schedule: Q01DX001 (ip), vehicle: Klucel (hydroxypropylcellulose) (HPC) 100 % of control and 96 % of control

COC1(OC)C=NNc2nccn21
inactive: [8] 100 % of control | [9] 96 % of control | [10] 104 % of control

Nc1nc(N)c2c(n1)NC(=O)CC2c1ccccc1 (stereo not given)
inactive: [8] 97 % of control | [9] 90 % of control | [10] 90 % of control

CCCCN=C(N=C(NC(=O)c1ccccc1)c1ccccc1)c1ccccc1
inactive: [3] 90 % of control | [4] 89 % of control | [18] 93 % of control

Cn1c(=O)oc2cc(N)c(Cl)cc21
inactive: dose: 12.5 mg/kg/injection, schedule: Q01DX005 (ip), vehicle: Klucel (hydroxypropylcellulose) (HPC) 88 % of control | [19] 94 % of control | [15] 100 % of control and 87 % of control

CC1(C)C(C=O)=CCC1CC(N)=O (stereo not given)
inactive: [8] 117 % of control | [9] 111 % of control

S=P1(Oc2ccccc2)Nc2cccc3cccc(c23)N1
inactive: [19] 98 % of control | [15] 106 % of control | [16] 102 % of control | [17] 103 % of control

Cc1ccc(NC(=O)Oc2ccc(C#N)cc2)c(C)c1
inactive: [8] 92 % of control | [9] 95 % of control | [10] 101 % of control

O=C(O)c1cccc(C(=O)O)c1S(=O)Cc1ccccc1 (stereo not given)
inactive: [14] 102 % of control | dose: 100.0 mg/kg/injection, schedule: Q01DX005 (ip), vehicle: saline with Tween-80 93 % of control | dose: 200.0 mg/kg/injection, schedule: Q01DX005 (ip), vehicle: saline with Tween-80 105 % of control

CC(C)CC(NC(=O)CN)C(=O)O (stereo not given)
inactive: dose: 25.0 mg/kg/injection, schedule: Q01DX005 (ip), vehicle: saline 103 % of control | [2] 95 % of control | dose: 50.0 mg/kg/injection, schedule: Q01DX005 (ip), vehicle: saline 101 % of control | [3] 89 % of control | dose: 100.0 mg/kg/injection, schedule: Q01DX005 (ip), vehicle: saline 103 % of control | [4] 88 % of control | dose: 200.0 mg/kg/injection, schedule: Q01DX005 (ip), vehicle: saline 99 % of control | [18] 91 % of control

O=C(Nc1ncnc2nc[nH]c12)NC1CCCCC1
inactive: dose: 0.75 mg/kg/injection, schedule: Q01DX005 (ip), vehicle: saline 106 % of control | dose: 1.5 mg/kg/injection, schedule: Q01DX005 (ip), vehicle: saline 98 % of control | dose: 3.0 mg/kg/injection, schedule: Q01DX005 (ip), vehicle: saline 95 % of control | [11] 89 % of control | [12] 98 % of control | [13] 86 % of control | [14] 109 % of control

Nc1nn(-c2ccc(Br)cc2)c2cccc[n+]12
inactive: [1] 105 % of control | dose: 25.0 mg/kg/injection, schedule: Q01DX009 (ip), vehicle: other 115 % of control | [2] 100 % of control | dose: 50.0 mg/kg/injection, schedule: Q01DX009 (ip), vehicle: other 97 % of control | [3] 100 % of control and 97 % of control

Cc1nn(C)c(=O)c(N)c1-c1cc(-c2ccc(Cl)cc2)n[nH]1
inactive: [8] 89 % of control | [9] 88 % of control

CC(C)(C#N)NNC(N)=S
inactive: dose: 3.12 mg/kg/injection, schedule: Q01DX009 (ip), vehicle: saline 103 % of control | dose: 6.25 mg/kg/injection, schedule: Q01DX009 (ip), vehicle: saline 100 % of control | dose: 12.5 mg/kg/injection, schedule: Q01DX009 (ip), vehicle: saline 87 % of control and 93 % of control | dose: 50.0 mg/kg/injection, schedule: Q04DX003 (ip), vehicle: saline 96 % of control | dose: 100.0 mg/kg/injection, schedule: Q04DX003 (ip), vehicle: saline 96 % of control | dose: 200.0 mg/kg/injection, schedule: Q04DX003 (ip), vehicle: saline 94 % of control

COc1cccc(C2c3cc4c(cc3OC(C)(O)C2C)OCO4)c1O (stereo not given)
inactive: [5] 96 % of control | [6] 98 % of control | [7] 93 % of control

CSc1nc(Cl)c2cn[nH]c2n1
inactive: dose: 100.0 mg/kg/injection, schedule: Q04DX002 (ip), vehicle: water 116 % of control | dose: 200.0 mg/kg/injection, schedule: Q04DX002 (ip), vehicle: water 109 % of control
